Here are results for one compound from publication PMC10946790, “A Functional Chemiluminescent Probe for in Vivo Imaging of Natural Killer Cell Activity Against Tumours” (Angewandte Chemie (Weinheim an Der Bergstrasse, Germany), 2021).

The assay deals with T1, hr‐granzyme B (Homo sapiens, UniProt P10144).
T1 construct: in the absence and presence of active human recombinant (hr)‐granzyme B
In words: Time-course signal-to-noise ratios after reaction with granzyme B. It is filed as biochemical. As to conditions: probe 25 μM, hr-granzyme B 20 nM, aqueous buffer, 37 °C, over 30 minutes; mean ± SEM, n=6. As for the experimental part:
In vitro characterisation assays. Enzymatic assays were run in a 384-well format in a PCR opaque microplate (Thermo Scientific). All experiments were performed at least in triplicate. Dilutions and reactions using human GZM B and human neutrophil elastase were prepared in 50 mM Tris-HCl and 100 mM NaCl (pH 7.4). GZM A assays were performed in 25 mM HEPES, 0.1% CHAPS and 10 mM DTT (pH 7.5). Dilutions and incubations with CASP8 and CASP9 were prepared in 50 mM HEPES, 100 mM NaCl, 0.1% Triton X-100, 10 mM DTT, 1 mM EDTA and 10% glycerol (pH 7.4). Any other tested biomolecules were prepared in PBS. Proteolytic activity was determined by calculating the fold change in chemiluminescence signal (or fluorescence signal in the case of Ac - IEPD-AMC) over background signal provided by the corresponding dilution of the probes with the enzyme using a spectrophotometer (Synergy H1 Hybrid Reader, BioTek) at 37°C.
Unless otherwise stated, probes were utilized at a concentration of 100 μM. Enzyme concentration used: 20 nM (except CASP9, which was used at 200 nM) and all other biomolecules were tested at 100 μM. In the case where an inhibitor was used, the enzyme was pre-incubated for 1 h with the inhibitor (100 µM) before addition of probe 1.
Cell culture. […]

Where a SMILES comes first, the peptide text is derived from it. The star is where a group is joined. AMC = Cc1cc(=O)oc2cc(N*)ccc12

T1 sequence (P10144 21-247): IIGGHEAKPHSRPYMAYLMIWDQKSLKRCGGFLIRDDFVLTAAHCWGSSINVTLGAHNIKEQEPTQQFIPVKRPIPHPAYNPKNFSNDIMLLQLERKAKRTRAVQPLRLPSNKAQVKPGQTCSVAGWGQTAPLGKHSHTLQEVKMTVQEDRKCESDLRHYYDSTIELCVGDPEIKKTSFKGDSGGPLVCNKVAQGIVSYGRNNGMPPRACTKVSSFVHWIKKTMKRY

In the case of `CC[C@H](C)[C@H](NC(C)=O)C(=O)N[C@@H](CCC(=O)O)C(=O)N1CCC[C@H]1C(=O)N[C@@H](CC(=O)O)C(=O)Nc1ccc2c(C)cc(=O)oc2c1` [Ac‐IEPD‐AMC] (Ac-IEPD-{AMC}), the “Signal‐to‐noise (S/N) ratio, fluorescence” value is “under 5”.
